From the NIST ThermoML archive (doi:10.1016/j.jct.2010.06.008)

Assay: xn = mol fraction of the nth substance listed
Conditions: 101 kPa, Liquid; for speed of sound: Sing-around technique in a fixed-path interferometer; for mass density: Vibrating tube method

CC(C)CCl [1-chloro-2-methylpropane] + CCCCCC
Conditions | mass density, 283.15 K [kg/m3] | mass density, 298.15 K [kg/m3] | mass density, 313.15 K [kg/m3] | speed of sound, 283.15 K [m/s] | speed of sound, 298.15 K [m/s] | speed of sound, 313.15 K [m/s]
x2 = 0 | 888.845 | 871.533 | 853.902 | 1141.7 | 1078.6 | 1016.3
x2 = 0.0512 | 874.715 | 857.627 | 840.236 | 1139.3 | 1075.9 | 1013.4
x2 = 0.0999 | 861.62 | 844.732 | 827.564 | 1137.3 | 1073.7 | 1011
x2 = 0.2003 | 835.641 | 819.166 | 802.454 | 1134 | 1070 | 1006.9
x2 = 0.2993 | 811.259 | 795.172 | 778.889 | 1131.9 | 1067.5 | 1003.9
x2 = 0.4005 | 787.516 | 771.817 | 755.943 | 1130.6 | 1065.8 | 1001.8
x2 = 0.4977 | 765.822 | 750.487 | 735.001 | 1130.5 | 1065.2 | 1000.6
x2 = 0.598 | 744.502 | 729.51 | 714.446 | 1131.3 | 1065.5 | 1000.4
x2 = 0.6993 | 723.963 | 709.35 | 694.648 | 1133 | 1066.7 | 1001.1
x2 = 0.799 | 704.731 | 690.452 | 676.142 | 1135.8 | 1069 | 1002.8
x2 = 0.8967 | 686.793 | 672.832 | 658.858 | 1139.6 | 1072.2 | 1005.6
x2 = 0.9472 | 677.811 | 664.036 | 650.244 | 1142 | 1074.3 | 1007.5

CC(C)CCl [1-chloro-2-methylpropane] + CCCCCCC
Conditions | mass density, 283.15 K [kg/m3] | mass density, 298.15 K [kg/m3] | mass density, 313.15 K [kg/m3] | speed of sound, 283.15 K [m/s] | speed of sound, 298.15 K [m/s] | speed of sound, 313.15 K [m/s]
x2 = 0 | 888.845 | 871.533 | 853.902 | 1141.7 | 1078.6 | 1016.3
x2 = 0.0507 | 874.748 | 857.771 | 840.47 | 1142.2 | 1079.1 | 1016.8
x2 = 0.0979 | 862.133 | 845.448 | 828.448 | 1143 | 1079.8 | 1017.4
x2 = 0.2004 | 836.427 | 820.343 | 803.95 | 1145.4 | 1082.2 | 1019.6
x2 = 0.3008 | 813.265 | 797.726 | 781.886 | 1149 | 1085.5 | 1022.9
x2 = 0.3993 | 792.269 | 777.224 | 761.888 | 1153.4 | 1089.8 | 1027
x2 = 0.4999 | 772.383 | 757.812 | 742.952 | 1158.6 | 1094.9 | 1032
x2 = 0.5973 | 754.5 | 740.349 | 725.924 | 1164.4 | 1100.6 | 1037.5
x2 = 0.6994 | 737.065 | 723.337 | 709.345 | 1171.2 | 1107.2 | 1044
x2 = 0.8006 | 720.978 | 707.64 | 694.051 | 1178.7 | 1114.2 | 1051.1
x2 = 0.9002 | 706.284 | 693.212 | 679.976 | 1187 | 1122.3 | 1058.9
x2 = 0.9491 | 699.353 | 686.54 | 673.496 | 1191 | 1126.4 | 1062.7

CCCCCl [1-chlorobutane] + CCCCCC
Conditions | mass density, 283.15 K [kg/m3] | mass density, 298.15 K [kg/m3] | mass density, 313.15 K [kg/m3] | speed of sound, 283.15 K [m/s] | speed of sound, 298.15 K [m/s] | speed of sound, 313.15 K [m/s]
x2 = 0 | 897.339 | 880.785 | 863.882 | 1180.1 | 1118.2 | 1056.9
x2 = 0.0508 | 882.878 | 866.478 | 849.768 | 1176 | 1113.8 | 1052.2
x2 = 0.0992 | 869.441 | 853.196 | 836.65 | 1172.3 | 1109.7 | 1047.9
x2 = 0.1972 | 843.152 | 827.205 | 810.995 | 1165.6 | 1102.4 | 1040
x2 = 0.2966 | 817.766 | 802.115 | 786.257 | 1159.7 | 1095.9 | 1032.8
x2 = 0.3976 | 793.168 | 777.821 | 762.288 | 1154.6 | 1090.2 | 1026.5
x2 = 0.5009 | 769.237 | 754.195 | 739.001 | 1150.5 | 1085.6 | 1021.2
x2 = 0.6006 | 747.205 | 732.45 | 717.601 | 1147.4 | 1081.8 | 1016.9
x2 = 0.6982 | 726.617 | 712.126 | 697.583 | 1145.2 | 1079.1 | 1013.6
x2 = 0.7972 | 706.669 | 692.488 | 678.241 | 1143.9 | 1077.2 | 1011.2
x2 = 0.8979 | 687.33 | 673.439 | 659.508 | 1143.7 | 1076.4 | 1009.8
x2 = 0.9472 | 678.205 | 664.449 | 650.666 | 1144.1 | 1076.4 | 1009.7

CCCCCl [1-chlorobutane] + CCCCCCC
mass density [kg/m3]
Conditions | 283.15 K | 298.15 K | 313.15 K
x2 = 0 | 897.339 | 880.785 | 863.882
x2 = 0.0508 | 882.735 | 866.442 | 849.802
x2 = 0.1017 | 868.636 | 852.592 | 836.205
x2 = 0.1981 | 843.549 | 827.947 | 812.014
x2 = 0.2989 | 819.278 | 804.127 | 788.662
x2 = 0.4022 | 796.314 | 781.594 | 766.57
x2 = 0.4998 | 776.207 | 761.86 | 747.232
x2 = 0.6008 | 756.852 | 742.869 | 728.632
x2 = 0.6989 | 739.334 | 725.722 | 711.853
x2 = 0.7985 | 722.761 | 709.483 | 695.957
x2 = 0.898 | 707.234 | 694.282 | 681.084
x2 = 0.9498 | 699.591 | 686.802 | 673.764

CC(C)(C)Cl [2-chloro-2-methylpropane] + CCCCCC
Conditions | mass density, 283.15 K [kg/m3] | mass density, 298.15 K [kg/m3] | mass density, 313.15 K [kg/m3] | speed of sound, 283.15 K [m/s] | speed of sound, 298.15 K [m/s] | speed of sound, 313.15 K [m/s]
x2 = 0 | 855.249 | 837.096 | 818.536 | 1046.9 | 983.25 | 919.41
x2 = 0.0495 | 843.636 | 825.763 | 807.514 | 1049.8 | 985.59 | 922.06
x2 = 0.0989 | 832.389 | 814.802 | 796.851 | 1052.2 | 987.79 | 924.46
x2 = 0.2019 | 809.862 | 792.826 | 775.465 | 1058.6 | 993.98 | 930.06
x2 = 0.2987 | 789.789 | 773.235 | 756.4 | 1065.7 | 1000.7 | 936.45
x2 = 0.4043 | 768.847 | 752.8 | 736.513 | 1074.5 | 1009.1 | 944.41
x2 = 0.4985 | 751.114 | 735.482 | 719.653 | 1083.1 | 1017.5 | 952.34
x2 = 0.6024 | 732.382 | 717.205 | 701.869 | 1093.7 | 1027.6 | 962.01
x2 = 0.7017 | 715.376 | 700.606 | 685.731 | 1104.7 | 1038.2 | 972.24
x2 = 0.7996 | 699.305 | 684.94 | 670.488 | 1116.6 | 1049.7 | 983.31
x2 = 0.9025 | 683.186 | 669.222 | 655.21 | 1130.4 | 1063 | 996.24
x2 = 0.9498 | 676.073 | 662.283 | 648.468 | 1137.2 | 1069.5 | 1002.6

CC(C)(C)Cl [2-chloro-2-methylpropane] + CCCCCCC
Conditions | mass density, 283.15 K [kg/m3] | mass density, 298.15 K [kg/m3] | mass density, 313.15 K [kg/m3] | speed of sound, 283.15 K [m/s] | speed of sound, 298.15 K [m/s] | speed of sound, 313.15 K [m/s]
x2 = 0 | 855.249 | 837.096 | 818.536 | 1046.9 | 983.25 | 919.41
x2 = 0.0519 | 843.365 | 825.671 | 807.559 | 1053 | 989.06 | 925.62
x2 = 0.1021 | 832.352 | 815.034 | 797.321 | 1059 | 995.16 | 931.82
x2 = 0.2015 | 811.803 | 795.208 | 778.248 | 1071.6 | 1007.9 | 944.63
x2 = 0.3006 | 792.846 | 776.886 | 760.618 | 1085.1 | 1021.5 | 957.98
x2 = 0.3997 | 775.339 | 759.908 | 744.157 | 1099.1 | 1035.7 | 972.04
x2 = 0.5027 | 758.514 | 743.587 | 728.394 | 1114.5 | 1051.1 | 987.29
x2 = 0.6011 | 743.606 | 729.156 | 714.479 | 1129.7 | 1066 | 1002.2
x2 = 0.7014 | 729.346 | 715.392 | 701.195 | 1145.5 | 1081.5 | 1017.8
x2 = 0.8007 | 716.295 | 702.832 | 689.124 | 1161.5 | 1097.1 | 1033.3
x2 = 0.8966 | 704.437 | 691.409 | 678.136 | 1177.4 | 1113.2 | 1049.5
x2 = 0.9518 | 697.935 | 685.122 | 672.064 | 1187 | 1122.5 | 1058.7
